Results from paper PMC10415494, “Ga(III) pyridinecarboxylate complexes: potential analogues of the second generation of therapeutic Ga(III) complexes?” (Journal of Biological Inorganic Chemistry, 2023).
Where two headings read alike, the source gives them in different places.

Columns and labels:
[1] = Description: The stock solution of HPic and H2Dpic was prepared by dissolving in demineralized water (c(ligand) = 0.02 M). The gallium(III) ion solution was prepared from anhydrous gallium(III) nitrate (c(Ga^3+) = 0.05 M) and was standardized by back titration of excess of EDTA with zinc(II). Decarbonated potassium hydroxide solution (approx. 0.2 M) was used as a titrant that was standardized by potassium hydrogen phthalate (c(KHP) = 0.1 M). Standard inert electrolyte of nitric acid was used in all titrations (c(HNO3) = 0.03 M, I(HNO3/KNO3) = 0.1 M). Potentiometric measurements were carried out using a TitroLine 7000 dosage system with a BlueLine combination electrode (SI Analytics) in a glass vessel (5 mL) thermostated at 25 ± 0.1 °C at an ionic strength I(KNO3) = 0.1 M. Inert atmosphere was ensured by a constant flow of a nitrogen gas. Precise calibration of the electrode was carried out by the titration of 0.03 M HNO3 with 0.2 M KOH in the range –log[H^+] = 1.8–12.0, with the pH-meter yielding E values. The relation between E and –log[H^+] is expressed by Eq. (1) where the term E^0 contains the standard potentials of the electrode and the contribution of inert ions to the liquid-junction potential. The value S corresponds to the Nernstian slope, the value of which should be close to the theoretical value, and j1[H^+] and j2[OH^–] = j2Kw/[H^+] are contributions of the H^+ and OH^– ions, respectively, to the liquid-junction potential. The pKw value was 13.78 in Eq. (1).1 E=E^0-S-logH^++j1H^++j2Kw/H^+
The parameters j1 and j2 cause deviation from linear dependence between E and –log[H^+] only in strongly acidic and strongly alkaline solutions. The picolinic and dipicolinic acid protonation constants were determined with ligand concentration 0.004 M. The stability constants in the Ga-HPic and Ga-H2Dpic binary system were determined by the ligand concentrations 0.004 and the Ga^3+ concentration was 0.004, 0.002 and 0.001 M in dependence on the ligand to metal ratio.
The protonation constants β110, β210 are the concentration constants and are defined by β110 = [HL]/ [H][L], β210 = [H2L]/ [H]^2[L] (pK2 = logβ110, pK1 = logβ210- logβ110); the stability constants are defined by βrqp = [HrLqMp]/[H]^r[L]^q[M]^p. The equilibrium constants were obtained by fitting the titration data with OPIUM [23]. The following hydrolysis constants were used for the calculations: βpr = [Mp(OH)r^3−r][H]^r/[M]^p; log β11 = − 2.74; log β12 = − 7.0; log β13 = − 11.96; log β14 = − 15.52 [24].

[2] = test system: A2058 (human metastatic melanoma); test: MTS antiproliferative assay
Description: (§1) Cell culture the cell lines A2058 (human metastatic melanoma), BLM (human metastatic melanoma), HCT116 (human colorectal carcinoma), HeLa (human cervical adenocarcinoma), Jurkat (human leukaemic T cell lymphoma). […] Cells were maintained in standard conditions with an atmosphere containing 5% CO2 at 37 °C.
(§2) The antiproliferative activity of Ga(III) complexes GaPic, GaDpic, GaChel, GaCldpic, free ligands (HPic, H2Dpic, H2Chel, H2Cldpic) and cisplatin (cisPt) were evaluated by colorimetric microculture MTS (3-(4,5-dimethylthiazol-2-yl)-5-(3-carboxymethoxyphenyl)-2-(4-sulfophenyl)-2H tetrazolium) assay (Promega, Madison, WI, USA). Cancer and non-cancer cells were seeded at density 5 × 10^3 cells/well in 96-well polystyrene microplates. Twenty-four hours after cell seeding, different concentrations (1.0—100.0 µM) of the compounds were tested. After 72 h of incubation, 10 µL of MTS was added to each well. After an additional 2 h, cell proliferation was evaluated by measuring of absorbance at wavelength 490 nm using the automated Cytation™ 3 Cell Imaging Multi-Mode Reader (Biotek, Winooski, VT, USA). The absorbance of control wells was taken as 100%, and the results were expressed as a percent of untreated control. IC50 values were calculated from MTS analyses.

[3] = test system: HCT116 (human colorectal carcinoma); test: MTS antiproliferative assay
Description: as §1, §2

[4] = test system: HeLa (human cervical adenocarcinoma); test: MTS antiproliferative assay
Description: as §1, §2

[5] = test system: Jurkat (human leukaemic T cell lymphoma); test: MTS antiproliferative assay
Description: as §1, §2

[6] = test system: MDA-MB-231 (human mammary gland adenocarcinoma); test: MTS antiproliferative assay
Description: as §1, §2

[7] = test system: PaTu 8902 (human pancreatic adenocarcinoma); test: MTS antiproliferative assay
Description: as §1, §2

[8] = test system: human dermal fibroblasts (HDF); test: MTS antiproliferative assay (non-cancer cells)
Description: as §1, §2

[9] = test system: Escherichia coli (E. coli) CCM 3988; test: Antimicrobial activity, macrodilution method (growth by A590); type: cell-based; conditions: for IC50: Bacteria, MHB, 37 °C, DMSO max 1.0 vol. %, read-out: IC50 E. coli; for partial inhibition of E. coli growth: concentration not given
Description: (§3) The antimicrobial activities of gallium(III) complexes GaPic, GaDpic, GaChel, GaCldpic, free ligands (HPic, H2Dpic, H2Chel, H2Cldpic) and positive controls (cefoxitin (C), ampicillin (A) and piperacillin (P)) were evaluated by macrodilution method using G^+ bacteria (Firmicutes) Staphylococcus aureus (S. aureus) CCM 3953 (Czech Collection of Microorganisms), G^− bacteria (γ-proteobacteria) Escherichia coli (E. coli) CCM 3988, Pseudomonas aeruginosa (P. aeruginosa) CCM 1959 (Czech Collection of Microorganisms) and the yeast Candida parapsilosis (C. parapsilosis) ATCC 22019 (American type culture collection). Cultures of bacteria (in Mueller–Hinton broth, MHB) and yeasts (in Sabouraud’s growth medium, SB) were incubated under shaking (250 rpm) at 37 °C. The growth of bacteria and yeasts was evaluated by measuring the absorbance of the growing cultures (A590) until the cultures reached the stationary growth phase. The effects of gallium(III) complexes on the growth of filamentous fungi Rhizopus oryzae (R. oryzae) CCM F-8284, Alternaria alternata (A. alternata) CCM F-128 and Microsporum gypseum (M. gypseum) CCM F-8342 (Czech Collection of Microorganisms) were observed by macrodilution method on solidified potato-dextrose growth medium (PDA). During culturing, the diameters of growing fungal colonies were measured at regular intervals. Briefly, the antimicrobial activity (bacteria and yeasts) gallium(III) complexes/ ligands were added to the microbial culture at the beginning of the cultivation-to the lag phase. Pure gallium(III) complexes/ligands were dissolved in DMSO. The final concentration of DMSO never exceeded 1.0 vol. % neither in control nor treated samples. Concentration of gallium(III) complexes used in experimental work for evaluation of antimicrobial activity was used in the range of 0.05–2 mM, for the free ligands in the range of 0.5–2.0 mM in all experiments. […] The IC50 values were evaluated from toxicity curves. All the obtained results of antimicrobial activity were compared to the activity of Ga(NO3)3.

[10] = test system: Staphylococcus aureus (S. aureus) CCM 3953; test: as above; type: cell-based; conditions: for IC50: Bacteria, MHB, 37 °C, DMSO max 1.0 vol. %, read-out: IC50 S. aureus; for inhibition of S. aureus growth: complex at 2 mM
Description: as §3

[11] = test system: Candida parapsilosis (C. parapsilosis) ATCC 22019; test: Antimicrobial activity, macrodilution method (yeast, growth by A590); type: cell-based; conditions: Yeast; Sabouraud's growth medium, 37 °C; read-out: IC50 C. parapsilosis
Description: as §3

[12] = test system: Alternaria alternata (A. alternata) CCM F-128; test: Growth of filamentous fungi, macrodilution method on solidified PDA (colony diameter); type: cell-based; conditions: Filamentous fungi; solidified potato-dextrose growth medium; read-out: IC50 A. alternata
Description: as §3

[13] = test system: Microsporum gypseum (M. gypseum) CCM F-8342; test: as above; type: cell-based; conditions: Filamentous fungi; solidified potato-dextrose growth medium; read-out: IC50 M. gypseum
Description: as §3

[14] = test system: Rhizopus oryzae (R. oryzae) CCM F-8284; test: as above; type: cell-based; conditions: solidified potato-dextrose growth medium; read-out: IC50 R. oryzae
Description: as §3

[15] = target: T1, bovine serum albumin (BSA) (Bos taurus, UniProt P02769); test: BSA fluorescence quenching (Stern-Volmer); type: binding; conditions: 0.01 M PBS buffer pH 7.4, 25 °C, λex = 280 nm
T1 construct: purchased Sigma-Aldrich Chemicals
Description: Fluorescence measurements were carried out on a Varian Cary Eclipse spectrofluorometer. The quenching studies of BSA with the Ga(III) complexes were investigated to determine whether they were able to quench fluorescence of BSA. All measurements were performed at 25 °C in 0.01 M PBS buffer (pH 7.4). The fluorescence spectra were measured at an excitation wavelength of 280 nm, with a slit width of 10 nm for the excitation and emission beams, in the range of 300–450 nm and analysed according to the classical Stern–Volmer Equation: F0/F=1+KSVQ where F0 and F are the fluorescence intensities in the absence and the presence of the quencher, respectively, KSV is the Stern–Volmer constant, and [Q] is the concentration of quencher.

[16] = Complex stability in biological testing medium by time-dependent 1H NMR; type: physicochemical; conditions: 300 K, over 96 h
Description: Nuclear magnetic resonance (NMR) data were collected on a Varian VNMRS 600 spectrometer operating at 599.87 MHz for ^1H. The concentration of all samples was approximately 3 mg/0.6 mL of 1% DMSO-d6/D2O. For comparison, the spectra of pure acids were also measured, while the pH of the solution of acids was adjusted to the same value as the solution of the complexes. The chemical shifts were referenced to the TSP (3-(trimethylsilyl)propionic-2,2,3,3-d4 acid sodium salt) peak (^1H NMR 0.00 ppm). The NMR data were recorded at 300 K, with chemical shifts δ reported in parts per million and coupling constants J in Hertz. All data were analysed using MestReNova 12.0.0 (2017) software. The stability in 1% DMSO-d6/D2O was determined for all samples. […]

[17] = test system: Pseudomonas aeruginosa (P. aeruginosa) CCM 1959; test: Antimicrobial activity, macrodilution method (growth by A590); type: cell-based
Description: as §3

T1 sequence (P02769 25-607): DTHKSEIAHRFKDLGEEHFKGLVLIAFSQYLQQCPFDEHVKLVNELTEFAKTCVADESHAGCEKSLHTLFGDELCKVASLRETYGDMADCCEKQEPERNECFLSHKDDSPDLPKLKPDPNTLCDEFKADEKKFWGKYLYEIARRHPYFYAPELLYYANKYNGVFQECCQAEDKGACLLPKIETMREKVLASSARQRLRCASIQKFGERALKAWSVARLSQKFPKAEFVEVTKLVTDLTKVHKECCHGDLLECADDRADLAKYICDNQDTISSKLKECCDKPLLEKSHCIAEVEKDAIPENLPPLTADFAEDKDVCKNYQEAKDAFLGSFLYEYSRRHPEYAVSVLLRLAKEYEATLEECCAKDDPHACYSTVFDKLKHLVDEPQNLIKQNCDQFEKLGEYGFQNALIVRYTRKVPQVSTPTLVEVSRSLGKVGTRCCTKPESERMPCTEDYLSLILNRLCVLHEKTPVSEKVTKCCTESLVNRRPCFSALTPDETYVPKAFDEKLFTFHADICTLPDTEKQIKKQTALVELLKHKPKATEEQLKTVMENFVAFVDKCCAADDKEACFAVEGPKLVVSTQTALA

Row | SMILES | stability constant logβ021 [1] | IC50 [9] | partial inhibition of E. coli growth [9] | IC50 [10] | inhibition of S. aureus growth [10] | IC50 [11] | IC50 [12] | IC50 [13] | IC50 [14] | IC50 [2] | IC50 [3] | IC50 [4] | IC50 [5] | IC50 [6] | IC50 [7] | IC50 [8] | stability in 1% DMSO-d6/D2O solution [16] | further results
1 | O=C([O-])c1ccccn1.O=C([O-])c1ccccn1.[Ga+3] [[Ga(Pic)2]^+] | 16.23(6) | – | – | – | – | – | – | – | – | – | – | – | – | – | – | – | – | –
2 | N.N.[Cl][Pt][Cl] [cisPt, cisplatin] | – | – | – | – | – | – | – | – | – | – | – | – | – | – | – | – | – | IC50 ([2]; read-out: Cytotoxic activity IC50 A2058, MTS, 72 h of incubation): 17.6 ± 1.2 µM; IC50 ([3]; read-out: Cytotoxic activity IC50 HCT116, MTS, 72 h of incubation): 7.4 ± 0.8 µM; IC50 ([4]; read-out: Cytotoxic activity IC50 HeLa, MTS, 72 h of incubation): 35.4 ± 3.4 µM; IC50 ([5]; read-out: Cytotoxic activity IC50 Jurkat, MTS, 72 h of incubation): 6.3 ± 0.5 µM; IC50 ([6]; read-out: Cytotoxic activity IC50 MDA-MB-231, MTS, 72 h of incubation): 7.1 ± 0.3 µM; IC50 ([7]; read-out: Cytotoxic activity IC50 PaTu 8902, MTS, 72 h of incubation): 12.9 ± 0.9 µM; IC50 ([8]; read-out: Cytotoxic activity IC50 HDF, MTS, 72 h of incubation): 40.1 ± 2.8 µM
3 | O.O=C([O-])c1cccc(C(=O)[O-])n1.O=C([O-])c1cccc(C(=O)[O-])n1.[Ga+3].[OH3+] [GaDpic, H3O[Ga(Dpic)2]·H2O] | – | > 2000 µM | 30% | > 2000 µM | 24% | > 2000 µM | > 2000 µM | > 2000 µM | > 2000 µM | 287 ± 59.3 µM | 1240 ± 58.9 µM | 1140 ± 135 µM | 325 ± 34.9 µM | 308 ± 67.8 µM | 509 ± 32.6 µM | 288 ± 26.6 µM | stable | Stern–Volmer binding constant Ksv BSA [15]: 68500 M⁻¹
4 | O=C([O-])c1cccc(C(=O)[O-])n1.O=C([O-])c1cccc(C(=O)[O-])n1.[Ga+3] [[Ga(Dpic)2]^−] | 15.42(9) | – | – | – | – | – | – | – | – | – | – | – | – | – | – | – | – | –
5 | O.O.O.O.O.O.O=C([O-])c1cc(O)cc(C(=O)[O-])n1.O=C([O-])c1cc(O)cc(C(=O)[O-])n1.[Ga+3].[Ga+3].[OH-].[OH-] [GaChel, [Ga(Chel)(H2O)(OH)]2·4H2O] | – | > 2000 µM | 9% | 2000 µM | 50% | > 2000 µM | > 2000 µM | > 2000 µM | > 2000 µM | 415 ± 4 µM | 406 ± 86.8 µM | 1410 ± 155 µM | 418 ± 100 µM | 199 ± 45.6 µM | 610 ± 54 µM | 347 ± 25.5 µM | stable | IC50 ([17]; Bacteria, MHB, 37 °C, DMSO max 1.0 vol. %, read-out: IC50 P. aeruginosa): 500 µM; MIC100 (MIC) P. aeruginosa ([17]; growth fully inhibited (100%)): 1000 µM
